#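 Method: 48-hour compound exposure of cells in 96-well plates, five concentrations, linear interpolation of endpoints. GI50 marks 50% less growth. Definition used: TGI = concentration required for complete inhibition of growth.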
# Key:
# Experiment in all cases: growth of human tumour cells (NCI), 48 h
# [1] = system: K-562 leukemia
# [2] = system: SW-620 colon
# [3] = system: IGROV1 ovarian
# [4] = system: SF-268 CNS
# [5] = system: UO-31 renal
# [6] = system: MOLT-4 leukemia
# [7] = system: OVCAR-4 ovarian
# [8] = system: HT29 colon
# [9] = system: HS 578T breast
# [10] = system: NCI-H23 lung
# [11] = system: RXF 393 renal
# [12] = system: HOP-92 NSCLC
# [13] = system: NCI-H522 lung
# [14] = system: PC-3 prostate
# [15] = system: BT-549 breast
# [16] = system: SR leukemia
# [17] = system: CCRF-CEM leukemia
# [18] = system: COLO 205 colon
# [19] = system: LOX IMVI melanoma
# [20] = system: EKVX NSCLC
# [21] = system: UACC-257 melanoma
# [22] = system: SNB-19 CNS
# [23] = system: 786-0 renal
# [24] = system: SK-MEL-28 melanoma
# [25] = system: TK-10 renal
# [26] = system: MALME-3M melanoma
# [27] = system: NCI-H226 lung
# [28] = system: A549 NSCLC
# [29] = system: OVCAR-3 ovarian
# [30] = system: MDA-MB-231 breast
# [31] = system: A498 renal
# [32] = system: CAKI-1 renal
# [33] = system: MDA-MB-435
# [34] = system: NCI/ADR-RES ovarian
# [35] = system: SK-MEL-5 melanoma
# [36] = system: U251 CNS
# [37] = system: T-47D breast
# [38] = system: HOP-62 NSCLC
# [39] = system: HCC-2998 colon
# [40] = system: SF-539 CNS
# [41] = system: OVCAR-5 ovarian
# [42] = system: UACC-62 melanoma
# [43] = system: SK-OV-3 ovarian
# [44] = system: SN12C renal
# [45] = system: HCT-15 colon
# [46] = system: RPMI-8226 leukemia
# [47] = system: MCF7 breast
# [48] = system: ACHN renal
# [49] = system: DU-145 prostate
# [50] = system: M14 melanoma
# [51] = system: OVCAR-8 ovarian
# [52] = system: SF-295 CNS
# [53] = system: SK-MEL-2 melanoma
# [54] = system: KM12 colon
# [55] = system: SNB-75 CNS
# [56] = system: NCI-H460 lung
# [57] = system: HCT-116 colon
# [58] = system: HL-60(TB) leukemia
structure (smiles),measurement,setting,value
N#CC(C#N)=C/C=C(\Sc1ccc(Cl)cc1)c1ccc(F)cc1,GI50,[1],0.0844 µM
same,TGI,[1],> 100 µM
same,GI50,[2],0.0532 µM
same,GI50,[3],2.09 µM
same,TGI,[3],12.3 µM
same,GI50,[4],2.46 µM
same,TGI,[4],18.8 µM
same,GI50,[5],1.85 µM
same,TGI,[5],> 40.3 µM
same,GI50,[6],0.281 µM
same,GI50,[7],19.5 µM
same,TGI,[7],60.3 µM
same,GI50,[8],2.06 µM
same,TGI,[8],> 51.6 µM
same,GI50,[9],2.75 µM
same,TGI,[9],22.8 µM
same,GI50,[10],0.528 µM
same,TGI,[10],2.05 µM
same,GI50,[11],5.36 µM
same,TGI,[11],> 100 µM
same,GI50,[12],0.501 µM
same,TGI,[12],13.2 µM
same,GI50,[13],2.8 µM
same,TGI,[13],> 47.6 µM
same,GI50,[14],0.496 µM
same,TGI,[14],6.19 µM
same,GI50,[15],1.16 µM
same,TGI,[15],6.22 µM
same,GI50,[16],0.171 µM
same,TGI,[16],> 100 µM
same,GI50,[17],0.0177 µM
same,TGI,[17],> 100 µM
same,GI50,[18],4.11 µM
same,TGI,[18],> 38.5 µM
same,GI50,[19],0.403 µM
same,GI50,[20],15.7 µM
same,TGI,[20],52.5 µM
same,GI50,[21],6.88 µM
same,TGI,[21],14.7 µM
same,GI50,[22],5.67 µM
same,TGI,[22],24.9 µM
same,GI50,[23],0.42 µM
same,TGI,[23],3.07 µM
same,GI50,[24],6.61 µM
same,TGI,[24],19.3 µM
same,GI50,[25],0.857 µM
same,TGI,[25],3.61 µM
same,GI50,[26],1.6 µM
same,TGI,[26],6.28 µM
same,GI50,[27],2.72 µM
same,TGI,[27],17.8 µM
same,GI50,[28],8.61 µM
same,TGI,[28],32.3 µM
same,GI50,[29],0.31 µM
same,TGI,[29],2.6 µM
same,GI50,[30],1.84 µM
same,TGI,[30],6.25 µM
same,GI50,[31],3.42 µM
same,TGI,[31],8.67 µM
same,GI50,[32],0.465 µM
same,TGI,[32],2.77 µM
same,GI50,[33],0.81 µM
same,TGI,[33],2.91 µM
same,GI50,[34],0.948 µM
same,TGI,[34],4.94 µM
same,GI50,[35],1.76 µM
same,TGI,[35],6.33 µM
same,GI50,[36],1.23 µM
same,TGI,[36],> 34.5 µM
same,GI50,[37],13.3 µM
same,TGI,[37],> 71.6 µM
same,GI50,[38],2.54 µM
same,TGI,[38],16 µM
same,GI50,[39],2.87 µM
same,TGI,[39],6.17 µM
same,GI50,[40],0.251 µM
same,TGI,[40],0.872 µM
same,GI50,[41],1.37 µM
same,TGI,[41],15.3 µM
same,GI50,[42],2.03 µM
same,TGI,[42],10.3 µM
same,GI50,[43],13.5 µM
same,TGI,[43],40.7 µM
same,GI50,[44],0.986 µM
same,TGI,[44],7.26 µM
same,GI50,[45],1.49 µM
same,TGI,[45],> 33.1 µM
same,GI50,[46],0.0597 µM
same,TGI,[46],1.1 µM
same,GI50,[47],0.982 µM
same,TGI,[47],> 100 µM
same,GI50,[48],1.52 µM
same,TGI,[48],> 27.7 µM
same,GI50,[49],0.525 µM
same,TGI,[49],> 33.6 µM
same,GI50,[50],0.729 µM
same,TGI,[50],2.61 µM
same,GI50,[51],5.89 µM
same,TGI,[51],12.7 µM
same,GI50,[52],2.74 µM
same,TGI,[52],9.94 µM
same,GI50,[53],4.15 µM
same,TGI,[53],> 63.6 µM
same,GI50,[54],0.87 µM
same,TGI,[54],3.73 µM
same,GI50,[55],16.6 µM
same,TGI,[55],31.7 µM
same,GI50,[56],2.31 µM
same,TGI,[56],> 100 µM
same,GI50,[57],0.0671 µM
same,TGI,[57],0.508 µM
COc1ccc(/C=C2\CCC/C(=C\c3ccc(OC)c(OC)c3)C2=O)cc1OC,GI50,[1],2.28 µM
same,TGI,[1],> 32.5 µM
same,GI50,[2],1.49 µM
same,TGI,[2],24.1 µM
same,GI50,[3],1.72 µM
same,TGI,[3],> 32.5 µM
same,GI50,[4],4.28 µM
same,TGI,[4],> 32.5 µM
same,GI50,[5],3.63 µM
same,TGI,[5],> 32.5 µM
same,GI50,[6],4.74 µM
same,TGI,[6],> 32.5 µM
same,GI50,[7],3.28 µM
same,TGI,[7],> 32.5 µM
same,GI50,[8],1.34 µM
same,TGI,[8],> 32.5 µM
same,GI50,[9],7.95 µM
same,TGI,[9],> 32.5 µM
same,GI50,[10],2.91 µM
same,TGI,[10],> 32.5 µM
same,GI50,[11],0.613 µM
same,TGI,[11],3.18 µM
same,GI50,[12],11.3 µM
same,TGI,[12],> 32.5 µM
same,GI50,[58],2.25 µM
same,TGI,[58],> 32.5 µM
same,GI50,[13],2.19 µM
same,TGI,[13],15.4 µM
same,GI50,[14],2.83 µM
same,TGI,[14],> 32.5 µM
same,GI50,[15],1.7 µM
same,TGI,[15],> 32.5 µM
same,GI50,[17],1.49 µM
same,TGI,[17],> 32.5 µM
same,GI50,[18],1.46 µM
same,TGI,[18],> 32.5 µM
same,GI50,[19],1.15 µM
same,TGI,[19],9.02 µM
same,GI50,[20],14 µM
same,TGI,[20],> 32.5 µM
same,GI50,[21],4.65 µM
same,TGI,[21],> 32.5 µM
same,GI50,[22],20.8 µM
same,TGI,[22],> 32.5 µM
same,GI50,[23],5.59 µM
same,TGI,[23],> 32.5 µM
same,GI50,[24],16.7 µM
same,TGI,[24],> 32.5 µM
same,GI50,[25],1.4 µM
same,TGI,[25],7.33 µM
same,GI50,[26],8.51 µM
same,TGI,[26],> 32.5 µM
same,GI50,[27],21.9 µM
same,TGI,[27],> 32.5 µM
same,GI50,[28],1.79 µM
same,TGI,[28],> 32.5 µM
same,GI50,[29],2.17 µM
same,TGI,[29],> 32.5 µM
same,GI50,[30],10.5 µM
same,TGI,[30],> 32.5 µM
same,GI50,[31],3.88 µM
same,TGI,[31],> 32.5 µM
same,GI50,[32],1.13 µM
same,TGI,[32],8.16 µM
same,GI50,[33],1.1 µM
same,TGI,[33],> 32.5 µM
same,GI50,[34],1.18 µM
same,TGI,[34],17.5 µM
same,GI50,[35],1.88 µM
same,TGI,[35],> 32.5 µM
same,GI50,[36],1.4 µM
same,TGI,[36],> 32.5 µM
same,GI50,[37],10.2 µM
same,TGI,[37],> 32.5 µM
same,GI50,[38],4.59 µM
same,TGI,[38],> 32.5 µM
same,GI50,[39],> 32.5 µM
same,TGI,[39],> 32.5 µM
same,GI50,[40],8.55 µM
same,TGI,[40],> 32.5 µM
same,GI50,[41],25 µM
same,TGI,[41],> 32.5 µM
same,GI50,[42],7.63 µM
same,TGI,[42],> 32.5 µM
same,GI50,[43],12.1 µM
same,TGI,[43],> 32.5 µM
same,GI50,[44],8.79 µM
same,TGI,[44],> 32.5 µM
same,GI50,[45],4.96 µM
same,TGI,[45],> 32.5 µM
same,GI50,[46],1.15 µM
same,TGI,[46],> 32.5 µM
same,GI50,[47],1.19 µM
same,TGI,[47],> 32.5 µM
same,GI50,[48],5.04 µM
same,TGI,[48],> 32.5 µM
same,GI50,[49],1.28 µM
same,TGI,[49],9.89 µM
same,GI50,[50],1.9 µM
same,TGI,[50],> 32.5 µM
same,GI50,[51],1.16 µM
same,TGI,[51],> 32.5 µM
same,GI50,[52],1.4 µM
same,TGI,[52],21.3 µM
same,GI50,[53],5.02 µM
same,TGI,[53],15.2 µM
same,GI50,[54],1.02 µM
same,TGI,[54],> 32.5 µM
same,GI50,[55],1.29 µM
same,TGI,[55],12.8 µM
same,GI50,[56],1.61 µM
same,TGI,[56],> 32.5 µM
same,GI50,[57],1.14 µM
same,TGI,[57],5.07 µM

# Reference: PubChem BioAssay (NCI)
